Tests used:
Format in all cases: cell-based, human
[1] = system: interaction between p53 and FOXO4; assay: in situ PLA (proximity ligation assay) of the physical binding between p53 and FOXO4 in H2O2-treated HaCaT cells; conditions: H2O2 200 μM, peptide 20 μM, 1 hour; for inhibition of the interaction between p53 and FOXO4 (PLA signals): in comparison with the control group
Description: After treating cells with the peptides of the present invention, the effects thereof on the physical binding between p53 and FOXO4 were evaluated through an in situ PLA (proximity ligation assay) method. HaCaT cells (human keratinocytes, CLS) were added at 4.5×10^4 cells per well, along with a DMEM containing 10% fetal bovine serum, to each well of a 24-well microplate and then cultured at 37° C. in a 5% CO2 incubator for 24 hours. H2O2 and the peptide solutions of Example 2 and H2O2 were added thereto so that the concentrations of H2O2 and each peptide in the medium were 200 μM and 20 μM respectively, followed by incubating for 1 hour under the same condition. As a control group, an untreated group (indicated by “control” in FIG. 1) and a group treated with H2O2 alone (indicated by “-” in FIG. 1) were used. The cells of each well were washed with PBS, fixed by treating with 2% formaldehyde for 15 minutes, and then treated with 0.1% TritonX-100 for 5 minutes to increase antibody permeability into the cells. Anti-p53 polyclonal antibody (Abcam, UK) and anti-FOXO4 polyclonal antibody (Santa Cruz, Calif., USA) were added thereto. After the PLA probe was added thereto using the in situ PLA kit (Sigma-Aldrich), hybridization, ligation, amplification and mounting steps were carried out according to the manufacturer's protocol. Each physical interaction between p53 and FOXO4 was quantified by measuring the luminescence signals (PLA signals) detected in each cell with a confocal laser microscope (Olympus fluoview FW1000; Olympus, Tokyo, Japan).

[2] = system: senescent ARPE-19 cells (retinal pigment epithelial cells); assay: apoptosis of H2O2-induced senescent cells, X-Gal (Senescence β-Galactosidase) staining, number of remaining senescent cells; conditions: ARPE-19, H2O2 25 μM 24 hours, then peptide 0.2 μM, 2 μM and 20 μM 24 hours; versus H2O2 alone ("-" group); FIGS. 3 and 4
Description: In order to evaluate the activity on the apoptosis of senescent cells by the treatment with the peptide of the present invention (the peptide of SEQ ID NO: 3) for 24 hours after inducing senescence by treating cells with H2O2, the X-Gal staining was carried out to measure the number of the remaining senescent cells. ARPE-19 cells (retinal pigment epithelial cells) were added at the density of 80% per well, along with a DMEM containing 10% fetal bovine serum, to each well of a 12-well microplate and then cultured at 37° C. in a 5% CO2 incubator for 24 hours. H2O2 was added thereto so that the concentration thereof in the medium was 25 μM, followed by incubating for 24 hours under the same condition. Thereafter, the cells in each well were washed with PBS and the peptide solution of Example 2 was added thereto so that the concentration of the peptide of SEQ ID NO: 3 was 0.2 μM, 2 μM, and 20 μM respectively, followed by incubating for 24 hours under the same condition. As a control group, an untreated group (indicated as “control” in FIGS. 3 and 4) and a group treated with H2O2 alone (indicated by “-” in FIGS. 3 and 4) were used. […] The bluish green color development detected in the senescence-induced cells was measured with a phase-contrast microscope (Olympus, Tokyo, Japan), and each number of senescent cells was quantified.

[3] = system: interaction between p53 and FOXO4; assay: in situ PLA of p53-FOXO4 binding with ERK inhibitor (PD98059) and SHP2 inhibitor (NSC878777) in HaCaT cells; conditions: H2O2 200 μM, 1 hour, FIG. 2
Description: After treating cells with the peptide of the present invention (the peptide of SEQ ID NO: 3), H2O2, a ERK inhibitor (PD98059), and a SHP2 inhibitor (NSC878777), the effects thereof on the physical binding between p53 and FOXO4 were evaluated through an in situ PLA (proximity ligation assay) method. HaCaT cells (human keratinocytes, CLS) were added at 4.5×10^4 cells per well, along with a DMEM containing 10% fetal bovine serum, to each well of a 24-well microplate and then cultured at 37° C. in a 5% CO2 incubator for 24 hours. The cells were treated with H2O2 (200 μM) and the peptide of SEQ ID NO: 3 (20 μM); or PD98059 (10 μM) or NSC878777 (10 μM) was additionally treated to the cells treated with H2O2 (200 μM) and the peptide of SEQ ID NO: 3 (20 μM), followed by incubating for 1 hour under the same condition. As a control group, an untreated group (indicated by “control” in FIG. 2) and a group treated with H2O2 alone were used. The cells of each well were washed with PBS, fixed by treating with 2% formaldehyde for 15 minutes, and then treated with 0.1% TritonX-100 for 5 minutes to increase antibody permeability into the cells. […] Each physical interaction between p53 and FOXO4 was quantified by measuring the luminescence signals (PLA signals) detected in each cell with a confocal laser microscope (Olympus fluoview FW1000; Olympus, Tokyo, Japan).

Leu-Leu-Asp (LLD) [Pep 8]
inhibition of the interaction between p53 and FOXO4 (PLA signals) ([1]; FIG. 1): remarkably inhibited
inhibition of the interaction between p53 and FOXO4 (PLA signals) ([1]; FIG. 1, listed as SEQ ID NO: 8): particularly excellent activity

Leu-Lys-Asp (LKD) [Pep 7]
inhibition of the interaction between p53 and FOXO4 (PLA signals) ([1]; FIG. 1): remarkably inhibited
inhibition of the interaction between p53 and FOXO4 (PLA signals) ([1]; FIG. 1, listed as SEQ ID NO: 7): particularly excellent activity

Leu-Glu-Asp (LED) [Pep 1]
extent of inhibition of the interaction between p53 and FOXO4 in comparison with the control group (PLA signals) ([1]; FIG. 1): two or more times
inhibition of the interaction between p53 and FOXO4 (PLA signals) ([1]; FIG. 1): remarkably inhibited
inhibition of the interaction between p53 and FOXO4 (PLA signals) ([1]; FIG. 1, listed as SEQ ID NO: 1): particularly excellent activity

Leu-Tyr-Asp (LYD) [Pep 9]
extent of inhibition of the interaction between p53 and FOXO4 in comparison with the control group (PLA signals) ([1]; FIG. 1): two or more times
inhibition of the interaction between p53 and FOXO4 (PLA signals) ([1]; FIG. 1): remarkably inhibited
inhibition of the interaction between p53 and FOXO4 (PLA signals) ([1]; FIG. 1, listed as SEQ ID NO: 9): particularly excellent activity

Leu-Trp-Asp (LWD) [Pep 19]
inhibition of the interaction between p53 and FOXO4 (PLA signals) ([1]; FIG. 1): remarkably inhibited
inhibition of the interaction between p53 and FOXO4 (PLA signals) ([1]; FIG. 1, listed as SEQ ID NO: 19): particularly excellent activity

Leu-Ala-Asp (LAD) [Pep 4]
inhibition of the interaction between p53 and FOXO4 (PLA signals) ([1]; FIG. 1): remarkably inhibited
inhibition of the interaction between p53 and FOXO4 (PLA signals) ([1]; FIG. 1, listed as SEQ ID NO: 4): particularly excellent activity

Leu-Phe-Asp (LFD) [Pep 11]
extent of inhibition of the interaction between p53 and FOXO4 in comparison with the control group (PLA signals) ([1]; FIG. 1): two or more times
inhibition of the interaction between p53 and FOXO4 (PLA signals) ([1]; FIG. 1): remarkably inhibited
inhibition of the interaction between p53 and FOXO4 (PLA signals) ([1]; FIG. 1, listed as SEQ ID NO: 11): particularly excellent activity

Leu-Gln-Asp (LQD) [Pep 5]
inhibition of the interaction between p53 and FOXO4 (PLA signals) ([1]; FIG. 1): remarkably inhibited
inhibition of the interaction between p53 and FOXO4 (PLA signals) ([1]; FIG. 1, listed as SEQ ID NO: 5): particularly excellent activity

Leu-Cys-Asp (LCD) [Pep 13]
inhibition of the interaction between p53 and FOXO4 (PLA signals) ([1]; FIG. 1): remarkably inhibited
inhibition of the interaction between p53 and FOXO4 (PLA signals) ([1]; FIG. 1, listed as SEQ ID NO: 13): particularly excellent activity

Leu-Pro-Asp (LPD) [Pep 17]
extent of inhibition of the interaction between p53 and FOXO4 in comparison with the control group (PLA signals) ([1]; FIG. 1): two or more times
inhibition of the interaction between p53 and FOXO4 (PLA signals) ([1]; FIG. 1): remarkably inhibited
inhibition of the interaction between p53 and FOXO4 (PLA signals) ([1]; FIG. 1, listed as SEQ ID NO: 17): particularly excellent activity

Leu-Val-Asp (LVD) [Pep 20]
extent of inhibition of the interaction between p53 and FOXO4 in comparison with the control group (PLA signals) ([1]; FIG. 1): two or more times
inhibition of the interaction between p53 and FOXO4 (PLA signals) ([1]; FIG. 1): remarkably inhibited
inhibition of the interaction between p53 and FOXO4 (PLA signals) ([1]; FIG. 1, listed as SEQ ID NO: 20): particularly excellent activity

Leu-His-Asp (LHD) [Pep 14]
extent of inhibition of the interaction between p53 and FOXO4 in comparison with the control group (PLA signals) ([1]; FIG. 1): two or more times
inhibition of the interaction between p53 and FOXO4 (PLA signals) ([1]; FIG. 1): remarkably inhibited
inhibition of the interaction between p53 and FOXO4 (PLA signals) ([1]; FIG. 1, listed as SEQ ID NO: 14): particularly excellent activity

Leu-Thr-Asp (LTD) [Pep 18]
extent of inhibition of the interaction between p53 and FOXO4 in comparison with the control group (PLA signals) ([1]; FIG. 1): two or more times
inhibition of the interaction between p53 and FOXO4 (PLA signals) ([1]; FIG. 1): remarkably inhibited
inhibition of the interaction between p53 and FOXO4 (PLA signals) ([1]; FIG. 1, listed as SEQ ID NO: 18): particularly excellent activity

Leu-Ile-Asp (LID) [Pep 15]
extent of inhibition of the interaction between p53 and FOXO4 in comparison with the control group (PLA signals) ([1]; FIG. 1): two or more times
inhibition of the interaction between p53 and FOXO4 (PLA signals) ([1]; FIG. 1): remarkably inhibited
inhibition of the interaction between p53 and FOXO4 (PLA signals) ([1]; FIG. 1, listed as SEQ ID NO: 15): particularly excellent activity

Leu-Gly-Asp (LGD) [Pep 3]
induction of apoptosis of senescent cells (number of remaining senescent cells) [2]: significantly induced the apoptosis of senescent cells
inhibition of the interaction between p53 and FOXO4 (PLA signals) ([1]; FIG. 1): remarkably inhibited
inhibition of the interaction between p53 and FOXO4 (PLA signals) ([1]; FIG. 1, listed as SEQ ID NO: 3): particularly excellent activity
dependence of the peptide's inhibitory signal on ERK and SHP2 ([3]; peptide 20 μM plus PD98059 10 μM or NSC878777 10 μM): dependent on ERK and SHP2 activation
inhibition of the interaction between p53 and FOXO4 (PLA signals) ([3]; peptide 20 μM): significantly inhibited

Source: patent US20230023726A1, “PHARMACEUTICAL COMPOSITION COMPRISING PEPTIDE THAT INHIBITS INTERACTION OF P53 AND FOXO4” (SUPADELIXIR INC., priority 2019, published 2023)
